{"source": "patent US7846972B2", "about": "“Multimeric oleamide derivative having connexin-26 inhibiting potency and use thereof in cancer therapy, etc” (The New Industrial Research Organization, priority 2004, dated 2010)", "key": {"rat connexin 26 (Cx26)": {"target": "T1, rat connexin 26 (Cx26) (Rattus norvegicus, UniProt P21994)", "T1 construct": "expressed in transfected cells; host or cells: HeLa cell subclone HeLa-Cx26 (human uterocervical squamous carcinoma)", "experiment": "Dye-transfer assay, GJIC through connexin 26 (HeLa-Cx26)", "assay_type": "cell-based", "details": "for connexin 26 inhibitory activity: result in words", "experimental": "(§1) Next, with respect to each oleamide derivative synthesized by the method described above, we studied whether each derivative inhibited connexin 26 (in other words, whether each one inhibited the transfer of a substance from one cell to another through a gap junction formed by the connexin 26). The experimental method was the same as that described in International Publication WO 2004/060398. Each gap junction intercellular communication (GJIC) score of each test substance was evaluated by dye-transfer assay.\n(§2) In the same manner as in the method described in the above-mentioned publication, human uterocervical squamaous carcinoma cells (HeLa cells) were used for the experiment. More specifically, HeLa cell subclones (HeLa-Cx26 and HeLa-Cx43) were used, and they stably expressed rat connexin 26 (Cx26) and rat connexin 43 (Cx43), respectively. All cells (including those in the examples described later) were incubated in Dulbecco's modified eagle's medium (DMEM) with 10% fetal calf serum (FCS) added.\n(§3) A day before the assay, the HeLa-Cx26 and HeLa-Cx43 cells each were suspended individually in DMEM containing 10% FCS. The respective cells were divided to be cultured as donor cells and recipient cells. The recipient cells were cultured in a culture dish with a diameter of 3 cm and were adjusted to yield subconfluent monolayers at the time of assay.\nIn the assay, first, both the dyes of calcein (gap junction-permeable) and DiI (gap junction-impermeable) were added to the culture of donor cells at concentrations of 10 μM and 2 μM, respectively, and incubated for one hour. Double-labeled donor cells were trypsinized and washed three times with phosphate-buffered saline. Thereafter each single donor cell was overlaid gently on unlabeled recipient cells. It took one hour for the donor cell to settle over a monolayer. […] Dye transfer from a donor cell to an adjacent recipient cell through a gap junction was observed.\nIn order to evaluate the inhibitory activity of each test substance with respect to the dye-coupling, one hour after the donor cells were planted, oleamide and the multimeric oleamide derivatives described above each were dissolved in ethanol, and 10 μL thereof was then added to each culture dish so that the final concentration was 20 μM. For control, ethanol diluted 1000 times was added to a culture dish.\nIn FIG. 2, since the donor cell indicated with a “*” mark contains both the calcein (green fluorescence) and DiI (red fluorescence), it is shown in yellow in the original drawing. Furthermore, when gap junction-permeable calcein is transferred to a recipient cell through a gap junction by the dye coupling, this cell is shown in green. With such an assay, the GJIC score of each test substance is evaluated as follows.\n(§4) That is, the evaluation was made as “0” where no dye-coupling of a donor cell is found, “1” where the dye-coupling of a donor cell to an adjacent recipient cell is found, “2” and “3” in cases where calcein that has been transferred to the adjacent recipient cell is transferred to the second and third adjacent cells in a direction away from the donor cell, respectively, and so on. Also, as shown with arrows in the drawing, the extent of cell dyeing was evaluated with four levels of 0.25, 0.5, 0.75, and 1.0 as intermediate levels.\n(§5) Such an assay was carried out three times repeatedly. […] Then the average value and standard deviation of the GJIC scores of the respective test substances were calculated. […]"}, "rat connexin 43 (Cx43)": {"target": "T2, rat connexin 43 (Cx43) (Rattus norvegicus, UniProt P08050)", "T2 construct": "expressed in transfected cells; host or cells: HeLa cell subclone HeLa-Cx43 (human uterocervical squamous carcinoma)", "T2 sequence (P08050 2-382 limits assumed)": "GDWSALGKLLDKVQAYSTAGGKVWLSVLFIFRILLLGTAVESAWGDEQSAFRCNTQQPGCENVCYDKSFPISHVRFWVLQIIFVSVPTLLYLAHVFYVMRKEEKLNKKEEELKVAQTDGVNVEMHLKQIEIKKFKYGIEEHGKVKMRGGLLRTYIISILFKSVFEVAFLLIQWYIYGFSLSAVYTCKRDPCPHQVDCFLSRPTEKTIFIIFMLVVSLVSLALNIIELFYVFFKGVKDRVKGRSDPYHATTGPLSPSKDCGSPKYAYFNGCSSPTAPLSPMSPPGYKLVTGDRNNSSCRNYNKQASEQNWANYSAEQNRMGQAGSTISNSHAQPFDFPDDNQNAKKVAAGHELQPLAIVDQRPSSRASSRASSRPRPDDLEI", "experiment": "Dye-transfer assay, GJIC through connexin 43 (HeLa-Cx43)", "assay_type": "cell-based", "details": "for connexin 43 inhibitory activity: HeLa-Cx43, 20 μM, result in words", "experimental": "as §1, §2, §3\nIn the assay, first, both the dyes of calcein (gap junction-permeable) and DiI (gap junction-impermeable) were added to the culture of donor cells at concentrations of 10 μM and 2 μM, respectively, and incubated for one hour. Double-labeled donor cells were trypsinized and washed three times with phosphate-buffered saline. Thereafter each single donor cell was overlaid gently on unlabeled recipient cells. It took one hour for the donor cell to settle over a monolayer. […]\nIn FIG. 2, since the donor cell indicated with a “*” mark contains both the calcein (green fluorescence) and DiI (red fluorescence), it is shown in yellow in the original drawing. […] With such an assay, the GJIC score of each test substance is evaluated as follows.\nas §4, §5"}, "Az521 cells [1]": {"system": "Az521 cells", "experiment": "Cytotoxicity assay (cell growth inhibitory potential), trypan blue cell count", "assay_type": "cell-based, human", "details": "Az521 cells in culture, 6-48 hours, FIG. 6", "experimental": "In order to examine the cytotoxicity (cell growth inhibitory potential) of MI-22, approximately 1×10^5 Az521 cells, which were human gastric cancer cells, were plated in each petri dish with a diameter of 3.5 cm and were cultured in the presence or absence (control) of MI-22. Then 6, 12, 24, 36, and 48 hours after the start of culture, the cells in each petri dish were taken off with trypsin-EDTA and then centrifuged. Thereafter the cells were dissolved in 10% FBS-containing DMEM, and then 10 μL of trypan blue was added to 10 μL thereof. After that, the number of cells was counted by the use of a counting chamber. The results are shown in the graphs in FIG. 6. The vertical axis indicates the number of cells, and the horizontal axis indicates the time. The graphs show averages of the results of experiments performed three times."}, "[2]": {"system": "BL6 cells (substrains of B16 mouse melanoma cells)", "assay_type": "in vivo", "experimental": "The experiment was carried out by the same method as that described in International Publication WO 2004/060398. That is, after subcutaneously inoculating 1×10^5 BL6 cells (substrains of B16 mouse melanoma cells) to a planter of each 4-week-old C57BL/6 mouse, the mice were classified into two groups.\n(1) MI-22 administration group: a group of mice subjected to intraperitoneal injection of MI-22 (10 mg) dissolved in olive oil (10 mL) so as to be 0.01 mL per 1 g of the weight of a mouse, once a day (about 0.2 mL per administration) on consecutive days\n(2) Nontreatment (Nt) group: a group of mice subjected to no drug administration/treatment by injection.\nThis treatment was carried out on consecutive days from the next day of the BL6 cells inoculation. When tumors that had formed at the inoculation sites grew to have diameters of about 7 mm, the legs with the tumors were removed by amputation at the knee joints. Then the above-mentioned treatment was carried out for another two days after the amputation. Thereafter the mice were fed without being treated. Four weeks after the amputations at the knee joints, the mice were euthanized, and metastasized tubercles that had formed at the pleura surface in the left and right lungs (the number of foci that metastasized to the lungs) were counted visually. An evaluation was made using 15 mice per each group."}, "[3]": {"experiment": "Solubility in organic solvent (handling property)", "assay_type": "physicochemical"}, "Az521 cells [4]": {"system": "Az521 cells", "experiment": "Cancer growth inhibition (antitumor effect), Az521 cells implanted subcutaneously in nude mice", "assay_type": "in vivo, mouse", "experimental": "Az521 cells, which were human gastric cancer cells, were implanted subcutaneously into the back of each nude mouse. Then the cancer growth inhibitory effect (antitumor effect) provided by MI-22 peritoneal administration was examined. More specifically, 1-2×10^5 Az521 cells were injected subcutaneously into the back of each 4-week-old BALB/c nude mouse (nu/nu). Three days before the subcutaneous implantation, 0.1 mL of a solution containing MI-22 (10 mg) dissolved in olive oil (10 mL) was injected intraperitoneally. After the subcutaneous implantation, MI-22 was administered intraperitoneally in the same manner twice a week. For the control mice group, no drug administration/treatment by injection was carried out.\nThe sizes of tumors formed after the subcutaneous implantation were observed, and then the antitumor effect of MI-22 was evaluated with the weight of the tumors being measured over time. The results are shown in the graph in FIG. 7. The vertical axis indicates the weight (mg) of tumors, and the horizontal axis indicates the number of days after the subcutaneous implantation. The average values of six tumors are shown with respect to three nude mice."}, "[5]": {"details": "HeLa-Cx26, 20 μM, dye-transfer assay"}}, "note": "Entries after “also recorded” stand apart in the source; their conditions may differ."}
{"smiles": "CCCCCCCC[C@H]1O[C@H]1CCCCCCCC(=O)NCCCCN(CCCNC(=O)CCCCCCC[C@@H]1O[C@@H]1CCCCCCCC)C(=O)CCCCCCC[C@@H]1O[C@@H]1CCCCCCCC", "note": "(relative stereo) [MI-51, N^1-{3-[8-{(2S*,3R*)-3-Octyl-oxiranyl}-octanoyl]-N-[4-{8[(2S*,3R*)-3-octyl-oxiranyl]-octanoylamino}-butyl]-aminopropyl}-{8-(2S*,3R*)-3-octyl-oxiranyl}octanamide]", "values": [{"measurement": "connexin 26 inhibitory activity as compared to the control by visual observation", "setting": "rat connexin 26 (Cx26); HeLa-Cx26, 20 μM, visual observation", "result": "found to have a connexin 26 inhibitory activity"}]}
{"smiles": "CCCCCCCC/C=C\\CCCCCCC(CCCCCC(CCCCCC/C=C\\CCCCCCCC)C(=O)N(CC)CC)C(=O)N(CC)CC", "note": "(stereo not drawn) [MI-39, N^1,N^1,N^9,N^9-Tetraethyl-2,8-di[(Z)-7-hexadecenyl]nonanediamide]", "values": [{"measurement": "connexin 43 inhibitory activity", "setting": "rat connexin 43 (Cx43)", "result": "no connexin 43 inhibitory activity; also recorded: hardly inhibited the function of connexin 43"}, {"measurement": "connexin 26 inhibitory activity", "setting": "rat connexin 26 (Cx26); [5]", "result": "strong connexin 26 inhibitory activity; also recorded: strong connexin 26 inhibitory activities"}]}
{"smiles": "CCCCCCCC/C=C\\CCCCCCC(CCCC(CCCCCC/C=C\\CCCCCCCC)C(=O)N(CC)CC)C(=O)N(CC)CC", "note": "(stereo not drawn) [MI-22, N^1,N^1,N^7,N^7-Tetraethyl-2,6-di[(Z)-7-hexadecenyl]-heptanediamide]", "values": [{"measurement": "cytotoxicity (cell growth inhibitory potential), number of cells vs control", "setting": "Az521 cells [1]", "result": "no significant difference between MI-22 and control; also recorded: not found"}, {"measurement": "spontaneous metastasis of cancer vs nontreatment (Nt) group, result in words", "setting": "[2]; C57BL/6 mice, intraperitoneal once a day", "result": "inhibited/suppressed spontaneous metastasis of cancer conspicuously"}, {"measurement": "decrease of the number of metastatic foci in the lungs vs nontreatment (Nt) group", "setting": "[2]; C57BL/6 mice, intraperitoneal once a day, 4 weeks after amputation, FIG. 4", "result": 80, "unit": "%"}, {"measurement": "number of mice with lungs with slight spontaneous metastasis", "setting": "[2]; of 15 mice per group, FIG. 5 (Nt group: eight)", "result": "six"}, {"measurement": "number of mice with lungs with considerable spontaneous metastasis", "setting": "[2]; of 15 mice per group, FIG. 5 (Nt group: five)", "result": "two"}, {"measurement": "number of mice with lungs with no spontaneous metastasis of cancer", "setting": "[2]; of 15 mice per group, FIG. 5 (Nt group: two)", "result": "seven"}, {"measurement": "solubility in an organic solvent", "setting": "[3]", "result": "dissolves well in an organic solvent"}, {"measurement": "growth of tumors (weight of tumors) vs control mice group", "setting": "Az521 cells [4]; BALB/c nude mice, intraperitoneal twice a week, FIG. 7", "result": "suppressed conspicuously"}, {"measurement": "increase in the volume of tumors vs nontreatment mice group (NT)", "setting": "Az521 cells [4]; nude mice, intraperitoneal, FIG. 8", "result": "suppressed conspicuously"}, {"measurement": "connexin 43 inhibitory activity", "setting": "rat connexin 43 (Cx43)", "result": "no connexin 43 inhibitory activity; also recorded: hardly inhibited the function of connexin 43; also recorded: no effect of inhibiting connexin 43 was found"}, {"measurement": "GJIC score obtained through connexin 43", "setting": "rat connexin 43 (Cx43); HeLa-Cx43, final concentration 20 μM, FIG. 3", "result": "almost the same as that of a control"}, {"measurement": "connexin 26 inhibitory activity", "setting": "rat connexin 26 (Cx26); [5]", "result": "strong connexin 26 inhibitory activity; also recorded: strong connexin 26 inhibitory activities"}, {"measurement": "GJIC score obtained through connexin 26", "setting": "rat connexin 26 (Cx26); HeLa-Cx26, final concentration 20 μM, dye-transfer assay, FIG. 3", "result": "≤ 2"}]}
{"smiles": "CCCCCCCC/C=C\\CCCCCCCC(=O)NCCCNC(=O)CCCCCCC/C=C\\CCCCCCCC", "note": "[MI-45, N^1-[(Z)-3-Octadec-9-enoylaminopropyl]-(Z)-9octadecenamide]", "values": [{"measurement": "connexin 43 inhibitory activity", "setting": "rat connexin 43 (Cx43)", "result": "no connexin 43 inhibitory activity; also recorded: hardly inhibited the function of connexin 43"}, {"measurement": "connexin 26 inhibitory activity", "setting": "rat connexin 26 (Cx26); [5]", "result": "strong connexin 26 inhibitory activity; also recorded: strong connexin 26 inhibitory activities"}]}
